Literature values as cited in patent US7771760B2, “Oils of capsaicinoids and methods of making and using the same” (NeurogesX, Inc., priority 2005, dated 2010).

COc1cc(CNC(=O)CCCC/C=C/C(C)C)ccc1O [capsaicin]
solubility in organic solvents (benzene, alcohol, ketone, ether and paraffin oils): soluble | solubility in cold water (cold water): sparingly soluble
